Assay: Temperature range of liquid crystal (MR)
Format: physicochemical
Conditions: Table 1

| Compound | Temperature (MR) Range of liquid crystal (monotropic) | Temperature (MR) Range of liquid crystal |
| --- | --- | --- |
| CCCCCCc1ccc(C(=O)Oc2ccc(C(F)(F)F)cc2)cc1 [Example 3, p'-trifluoromethylphenyl p-n-hexylbenzoate] | 58.8 °C |  |
| CCCCCCOc1ccc(C(=O)Oc2ccc(C(F)(F)F)cc2)cc1 [Example 8, p'-trifluoromethylphenyl p-n-hexyloxybenzoate] |  | 74.7-76.5 °C |
| CCCCCCCOc1ccc(C(=O)Oc2ccc(C(F)(F)F)cc2)cc1 [Example 9, p'-trifluoromethylphenyl p-n-heptyloxybenzoate] |  | 62.9-74.3 °C |
| CCCCCCCCOc1ccc(C(=O)Oc2ccc(C(F)(F)F)cc2)cc1 [Example 10, p'-trifluoromethylphenyl p-n-octyloxybenzoate] |  | 62.5-72.5 °C |
| N#Cc1ccc(OC(=O)c2ccc(C(F)(F)C(F)(F)C(F)(C(F)(F)F)C(F)(F)F)cc2)cc1 [Example 12, p'-Cyanophenyl p-(3-trifluoromethylperfluorobutyl)benzoate] |  | 90.0-98.5 °C |
| N#Cc1ccc(OC(=O)c2ccc(C(F)(F)C(F)(F)C(F)(F)C(F)(F)C(F)(C(F)(F)F)C(F)(F)F)cc2)cc1 [Example 13] |  | 109.6-121.3 °C |
| N#Cc1ccc(OC(=O)c2ccc(C(F)(F)C(F)(F)C(F)(F)C(F)(F)C(F)(F)C(F)(F)C(F)(C(F)(F)F)C(F)(F)F)cc2)cc1 [Example 14] |  | 130.7-140.7 °C |
| N#Cc1ccc(OC(=O)c2ccc(C(F)(F)C(F)(F)C(F)(F)C(F)(F)C(F)(F)C(F)(F)F)cc2)cc1 [Example 15] |  | 99.8-123.3 °C |
| N#Cc1ccc(OC(=O)c2ccc(C(F)(F)C(F)(F)C(F)(F)C(F)(F)C(F)(F)C(F)(F)C(F)(F)C(F)(F)F)cc2)cc1 [Example 16] |  | 118-145 °C |
| Cc1ccc(OC(=O)c2ccc(C(F)(F)C(F)(F)C(F)(F)C(F)(F)C(F)(F)C(F)(F)C(F)(F)C(F)(F)F)cc2)cc1 [Example 17] | 111-112 °C |  |
| CCCCCc1ccc(OC(=O)c2ccc(C(F)(F)C(F)(F)C(F)(C(F)(F)F)C(F)(F)F)cc2)cc1 [Example 18] | 57-58 °C |  |
| O=C(Oc1ccc(C(F)(F)F)cc1)c1ccc(C(F)(F)C(F)(F)C(F)(C(F)(F)F)C(F)(F)F)cc1 [Example 19] | 67.5-68.7 °C |  |
| O=C(Oc1ccc([N+](=O)[O-])cc1)c1ccc(C(F)(F)C(F)(F)C(F)(C(F)(F)F)C(F)(F)F)cc1 [Example 20] |  | 68.6-79.2 °C |

Now from value to compound, other results behind:

| Temperature (MR) Range of liquid crystal (monotropic) | Compound | Temperature (MR) Range of liquid crystal |
| --- | --- | --- |
| 93.4 °C | CCCCOc1ccc(C(=O)Oc2ccc(C(F)(F)F)cc2)cc1 [C4 H9 O / CF3] |  |
| 67.8 °C | CCCCc1ccc(C(=O)Oc2ccc(C(F)(F)F)cc2)cc1 [Example 1, p'-trifluoromethylphenyl p-n-butylbenzoate] |  |
| 66.8 °C | CCCCCc1ccc(C(=O)Oc2ccc(C(F)(F)F)cc2)cc1 [Example 2, p'-trifluoromethylphenyl p-n-pentylbenzoate] |  |
| 61.0 °C | CCCCCCCc1ccc(C(=O)Oc2ccc(C(F)(F)F)cc2)cc1 [Example 4, p'-trifluoromethylphenyl p-n-heptylbenzoate] |  |
| 58.5 °C | CCCCCCCCc1ccc(C(=O)Oc2ccc(C(F)(F)F)cc2)cc1 [Example 5, p'-trifluoromethylphenyl p-n-octylbenzoate] |  |
| 78.5 °C | CCCCCOc1ccc(C(=O)Oc2ccc(C(F)(F)F)cc2)cc1 [Example 7, p'-trifluoromethylphenyl p-n-pentyloxybenzoate] |  |
